Biological target: T1, amyloid β protein (QD-Aβ / Aβ42) deposited on and/or in cerebral organoid (Homo sapiens, UniProt P05067)
T1 construct: To a reagent bottle of Aβ1-42 0.5 mg (manufactured by Peptide Institute, Inc.: Cat No. 4394v); purchased Peptide Institute, Inc. 4394v; host or cells: synthetic peptide, added to the culture of a cerebral organoid derived from human iPS cells (HPS08554)
Experiment: Aβ deposition suppression on cerebral organoid with quantum dot-modified amyloid β (QD-Aβ), fluorescence image analysis
Assay type: cell-based
Conditions: rosmarinic acid 50 μM; QD-Aβ 30 nM, artificial Aβ 10 μM; human iPS cell-derived cerebral organoid; 24 hours at 37° C.
Method: An end of a tip for 1000 μL was cut with sterilized scissors, and the organoid grown to a diameter of 1 mm or larger prepared in Example 1 was sucked so as not to collapse, and transferred to a U-bottom 96-well plate. […]
The next day, the culture supernatant was completely removed so as not to suck the organoid, and after 150 μL of a fresh NbM medium was added, the cultured organoid was observed and photographed using a fluorescence microscope.
Using a fluorescent microscope (BZ-X800 manufactured by Keyence Corporation), the cultured organoid in Example 2 was photographed in a bright field at high resolution with an exposure time of 1/500 s to 1/2000 s, or at high sensitivity with an exposure time of 1/2000 s to 1/5000 s, using a Z stack with 20 μm intervals. […] Thereafter, in order to observe the deposition of quantum dot-modified amyloid β on the cultured organoid, red fluorescence was observed using a TRITC lens at high sensitivity with an exposure time of ¼ s to 1/8.5 s, and images were obtained according to the above procedure.
Each of the images obtained above was analyzed as follows. Specifically, the hybrid cell count function was used to read the organoid images used in the various tests, select the bright field, and then set the extraction selection to OFF. The threshold of the read bright-field images was set to 200, and the organoid area was calculated (organoid surface area). […]

T1 sequence (P05067 672-713): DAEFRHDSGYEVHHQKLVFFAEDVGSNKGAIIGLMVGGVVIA

Aβ deposition suppression rate: less than 5.0%
SMILES: O=C(/C=C/c1ccc(O)c(O)c1)O[C@H](Cc1ccc(O)c(O)c1)C(=O)O [rosmarinic acid, Rosmarinic acid]
